Measurements published in ChEMBL document CHEMBL5252641, “Design, synthesis, and evaluation of benzofuran-based chromenochalcones for antihyperglycemic and antidyslipidemic activities” (RSC Med Chem, 2023).

Columns and labels:
Syrian golden hamster [1] = assay: Antidyslipidemic activity in Triton-induced hyperlipidemic Syrian golden hamster model assessed as decrease in total cholesterol level at 50 mg/kg measured after 18 hrs; format: functional, Mesocricetus auratus; design: scale not given: the % may be the effect or the level left
Syrian golden hamster [2] = assay: Antidyslipidemic activity in Triton-induced hyperlipidemic Syrian golden hamster model assessed as increase in lecithin-cholesterol acyltransferase level at 50 mg/kg measured after 18 hrs; format: functional, Mesocricetus auratus
Syrian golden hamster [3] = assay: Antidyslipidemic activity in Triton-induced hyperlipidemic Syrian golden hamster model assessed as decrease in PL level at 50 mg/kg measured after 18 hrs; format: functional, Mesocricetus auratus; design: scale not given: the % may be the effect or the level left
Syrian golden hamster [4] = assay: Antidyslipidemic activity in Triton-induced hyperlipidemic Syrian golden hamster model assessed as decrease in triglyceride level at 50 mg/kg measured after 18 hrs; format: functional, Mesocricetus auratus; design: scale not given: the % may be the effect or the level left
Syrian golden hamster [5] = assay: Antidyslipidemic activity in Triton-induced hyperlipidemic Syrian golden hamster model assessed as increase in post-heparin lipolytic activity at 50 mg/kg measured after 18 hrs; format: functional, Mesocricetus auratus
Rattus norvegicus [6] = assay: Antidiabetic activity in streptozotocin induced hyperglycemic Wistar rat model assessed as improvement in blood glucose level at 100 mg/kg,po measured upto 5 hrs relative to control; format: functional
L6 [7] = assay: Induction of glucose uptake in rat L6 cells expressing GLUT4 myc epitopes at 10 uM incubated for 24 hrs by scintillation counting method relative to control; format: functional
[8] = Antioxidant activity assessed as hydroxyl radical scavenging activity at 100 uM incubated for 90 mins by spectrophotometric analysis; format: functional
Rattus norvegicus [9] = assay: Antidiabetic activity in streptozotocin induced hyperglycemic Wistar rat model assessed as improvement in blood glucose level at 100 mg/kg,po measured upto 24 hrs relative to control; format: functional
[10] = Antioxidant activity assessed as superoxide anion radical scavenging activity at 100 uM incubated for 30 mins by spectrophotometric analysis; format: functional
L6 [11] = assay: Induction of glucose uptake in rat L6 cells expressing GLUT4 myc epitopes at 5 uM incubated for 24 hrs by scintillation counting method relative to control; format: functional

| Compound | Activity (Syrian golden hamster [1]) [%] | Activity (Syrian golden hamster [2]) [%] | Activity (Syrian golden hamster [3]) [%] | Activity (Syrian golden hamster [4]) [%] | Activity (Syrian golden hamster [5]) [%] | Activity (Rattus norvegicus [6]) [%] | Activity (L6 [7]) [%] | Activity [8] | Activity (Rattus norvegicus [9]) [%] | Activity [10] | Activity (L6 [11]) [%] |
| --- | --- | --- | --- | --- | --- | --- | --- | --- | --- | --- | --- |
| Cc1ccc(C)c(OCCCC(C)(C)C(=O)O)c1 [GEMFIBROZIL] | 38 | 42 | 34 | 36 | 41 |  |  |  |  |  |  |
| CC1(C)C=Cc2c(O)c(C(=O)/C=C/c3ccc4occc4c3)c3c(c2O1)C=CC(C)(C)O3 | 11 | 15 | 13 | 19 | 22 | 2.3 | 124 | 12 | 0.81 | 16 |  |
| CC(C)=CCCC1(C)C=Cc2ccc(O)c(C(=O)/C=C/c3ccc4oc(C(=O)c5ccc(C)cc5)cc4c3)c2O1 (stereo not given) | 18 | 22 | 17 | 14 | 22 |  | 47.4 | 11 |  | 19 |  |
| CN(C)C(=N)NC(=N)N [METFORMIN] |  |  |  |  |  | 30.5 |  |  | 27.9 |  |  |
| Cc1ccc(C(=O)c2cc3cc(/C=C/C(=O)c4ccc5c(c4O)C=CC(C)(C)O5)ccc3o2)cc1 | 13 | 17 | 11 | 13 | 18 |  | 53.1 | 10 |  | 11 |  |
| CC(C)=CCCC1(C)C=Cc2ccc(O)c(C(=O)/C=C/c3ccc4occc4c3)c2O1 (stereo not given) | 10 | 14 | 11 | 11 | 17 |  | 108 | 19 |  | 11 |  |
| COc1ccc(C(=O)c2cc3cc(/C=C/C(=O)c4c(O)c5c(c6c4OC(C)(C)C=C6)OC(C)(C)C=C5)ccc3o2)cc1 | 9 | 12 | 13 | 15 | 21 |  | 22 | 17 |  | 12 |  |
| COc1ccc(C(=O)c2cc3cc(/C=C/C(=O)c4c(O)ccc5c4OC(C)(CCC=C(C)C)C=C5)ccc3o2)cc1 (stereo not given) | 16 | 19 | 15 | 16 | 19 |  | 65.5 | 13 |  | 11 |  |
| CC1(C)C=Cc2c(ccc(C(=O)/C=C/c3ccc4occc4c3)c2O)O1 | 13 | 17 | 10 | 15 | 19 |  | 161.5 | 12 |  | 16 | 96 |
| Oc1ncnc2[nH]ncc12 |  |  |  |  |  |  |  |  |  | 37 |  |
| CC(C)=CCCC1(C)C=Cc2c(ccc(C(=O)/C=C/c3ccc4oc(C(=O)c5ccccc5)cc4c3)c2O)O1 (stereo not given) | 21 | 25 | 13 | 10 | 18 |  | 20.5 | 18 |  | 18 |  |
| CC(C)=CCCC1(C)C=Cc2ccc(O)c(C(=O)/C=C/c3ccc4oc(C(=O)c5ccccc5)cc4c3)c2O1 (stereo not given) | 17 | 19 | 6 | 8 | 13 |  | 82.5 | 13 |  | 12 |  |
| CN(CCOc1ccc(CC2SC(=O)NC2=O)cc1)c1ccccn1 (stereo not given) [ROSIGLITAZONE] |  |  |  |  |  |  | 96.5 |  |  |  |  |
| COc1ccc(C(=O)c2cc3cc(/C=C/C(=O)c4ccc5c(c4O)C=CC(C)(CCC=C(C)C)O5)ccc3o2)cc1 (stereo not given) | 7 | 9 | 10 | 10 | 14 |  | 6 | 7 |  | 9 |  |
| CC(C)=CCCC1(C)C=Cc2c(ccc(C(=O)/C=C/c3ccc4occc4c3)c2O)O1 (stereo not given) | 16 | 20 | 19 | 11 | 21 | 19.2 | 188 | 16 | 17.2 | 14 | 73.5 |
| OC[C@@H](O)[C@@H](O)[C@H](O)[C@H](O)CO |  |  |  |  |  |  |  | 39 |  |  |  |
| CC1(C)C=Cc2ccc(O)c(C(=O)/C=C/c3ccc4oc(C(=O)c5ccc(Cl)cc5)cc4c3)c2O1 | 8 | 10 | 6 | 7 | 11 |  | 89 | 12 |  | 17 |  |
| Cc1ccc(C(=O)c2cc3cc(/C=C/C(=O)c4c(O)ccc5c4OC(C)(C)C=C5)ccc3o2)cc1 | 16 | 20 | 11 | 15 | 19 |  | 72.9 | 18 |  | 13 |  |
| COc1ccc(C(=O)c2cc3cc(/C=C/C(=O)c4c(O)c5c(c6c4OC(C)(CCC=C(C)C)C=C6)OC(C)(CCC=C(C)C)C=C5)ccc3o2)cc1 (stereo not given) | 18 | 21 | 13 | 14 | 16 |  | 37 | 11 |  | 9 |  |
| CC1(C)C=Cc2c(O)c(C(=O)/C=C/c3ccc4oc(C(=O)c5ccccc5)cc4c3)c3c(c2O1)C=CC(C)(C)O3 | 10 | 14 | 16 | 18 | 23 |  | 26.5 | 11 |  | 15 |  |
| COc1ccc(C(=O)c2cc3cc(/C=C/C(=O)c4ccc5c(c4O)C=CC(C)(C)O5)ccc3o2)cc1 | 15 | 19 | 13 | 16 | 21 |  | 109.5 | 11 |  | 16 |  |
| CC(C)=CCCC1(C)C=Cc2ccc(O)c(C(=O)/C=C/c3ccc4oc(C(=O)c5ccc(Cl)cc5)cc4c3)c2O1 (stereo not given) | 11 | 15 | 18 | 18 | 24 |  | 4 | 13 |  | 12 |  |
| CC1(C)C=Cc2c(O)c(C(=O)/C=C/c3ccc4oc(C(=O)c5ccc(Cl)cc5)cc4c3)c3c(c2O1)C=CC(C)(C)O3 | 11 | 15 | 16 | 24 | 26 |  | 27 | 13 |  | 21 |  |
